PMC4663524 (Toxins, 2015)
Several values for one entry are separate records, joined by “and”; a condition that tells them apart may be missing. Equal entries are not always repeated.

Tests used:
[1] = DONS/DON pattern in standard solution, bolus solution and pig plasma; assay type: physicochemical; settings: for Proportion in bolus solution: DONS standard mixed with physiological saline for IV bolus (pH 2.66); for Proportion in standard solution: DONS standard solution (pH 1.56); for Proportion in pig plasma: after IV 50 µg DONS mixture/kg BW
Procedure: (§1) Two different injection solutions were prepared for IV administration. […] After weighing, an individual amount was drawn up into syringes with a dose of 50 µg/kg BW. The concentrations of DONS 1, 2, and 3 in DONS standard solution were 3240, 1720, and 7300 µg/mL, respectively. […] Thereafter, the standard was mixed with physiological saline to prepare a 250 µg/mL DONS stock solution. The further handling was similar to DON.
Due to known dependency of DONS stability on pH value, we compared the pH of standard and bolus solutions. The determination was carried out with a pH meter (WTW GmbH, Weilheim, Germany). Both an addition of physiological saline and distilled water caused changes in pH value, and so shifts in DONS ratio took place.
(§2) For quantitative determination of DONS 1, 2, and 3 in plasma, an HPLC-MS/MS analysis was conducted on an Agilent 1200 (Agilent Technologies, Böblingen, Germany) series HPLC system coupled to a 4000 QTrap mass spectrometer (AB Sciex, Foster City, CA, USA). […] The retention times of DONS 1, 2, and 3 were 2.31, 4.71, and 5.88 min, respectively. Tandem mass spectrometric detection was carried out in negative ion mode after electrospray ionization at 600 °C (ion spray voltage: −4500 V). The method was validated in-house for all analytes based on the guidelines of the FDA and European community. Calibration graphs (0.3–480 ng/mL) were prepared and good linearity was achieved (r ≥ 0.99).

[2] = Clinical symptoms after intravenous or oral bolus; assay type: in vivo, pigs; settings: for clinical symptoms: pigs, after single bolus
Procedure: (§3) The experiment was designed as a kinetic study. […] Due to the instability of DONS 2 and 3 upon evaporation to dryness, the standards of the three DONS were dissolved in water acidified with 2% formic acid.
(§4) A total of 16 castrated male pigs, crossbred German Landrace × Pietrain, were used for these kinetic experiments. After an adaption phase to the balance cages, eight animals underwent surgery per trial. Animals were equipped with two permanent intravenous catheters in the external vena jugularis for serial blood sampling. After surgery the animals were allowed to recover for one day. On test day, zero blood samples had to be collected from pigs before exposure. Zero blood samples served as reference values to which the data after oral or intravenous bolus related. Serial blood samples (10 mL) were drawn prior to feeding and after 15, 30, 60 and 90 min and then after two, three, four, six, eight, 10, 12, and 24 h for pigs receiving compounds by oral administration. For pigs dosed intravenously, shorter time intervals were chosen at the beginning: five, 10, 15, 20, 30, 45 min and then following the same intervals as for oral exposure. For a clear classification in result Table 1, Table 2, Table 3, Table 4, Table 5 and Table 6, we differentiated between IV- (intravenous bolus) and O- (oral bolus) animals. Due to repeated use of individuals it was numbered continuously.

[3] = Plasma toxicokinetics after a single intravenous bolus (DONiv, DONSiv); assay type: in vivo, pigs; settings: for Vd(area), apparent volume of distribution: DONS 1 or DONS 2, DONSiv 50 µg/kg BW; for peak concentration in plasma (mean of A + B): after DONSiv 50 µg/kg BW; for stability in plasma: after DONSiv injection
Procedure: as §3, §4, §1, §2
The LOD amounted to 0.22 ng/mL and the LOQ was 0.72 ng/mL.
A + B is the initial concentration at t = 0, i.e., C0, α, and β are the rate constant of distribution or elimination phase, respectively, and t the time (h). The non-linear curve fitting module of the Statistica for the Windows^TM operating system (StatSoft Inc., Tulsa, OK, USA) was used to fit the data to Equations (1) and (2).
Further kinetic parameters were derived from the fitted functions as also described by Prelusky et al.. The half-life was calculated as t1/2α=ln (2)/ka or α for absorption or distribution phase and t1/2β=ln(2)/kel or β for the elimination phase, respectively. […] The apparent volume of distribution by area (Vd(area)) following intravenous application was calculated by Vd(area) = D/AUC⋅t1/2β/ln(2) as an indicator of Vd corresponding to the elimination phase and thus covering large parts of the kinetics.
In addition, in order to evaluate the decomposition of the IV administered DONS mixture the DON-AUC was divided by the sum of individually estimated AUCs for DONS 1 and DONS 2 and declared as F. In each case, the AUCs were corrected for the administered dose.

[4] = cited from earlier work
[5] = cited from earlier work; remark: listed apart in the source
[6] = DONS mixture added to uncontaminated diet
[7] = cited from earlier work; for pH range of stability: DONS 2: for 24 h
[8] = DON in plasma after DONSiv 50 µg/kg BW, individual pigs IV6-11
[9] = DON in plasma after DONSiv 50 µg/kg BW, mean, n=6
[10] = DON in plasma, IV 50 µg DON/kg BW, individual pigs IV 1-5, listed as DONiv
[11] = DON in plasma, IV 50 µg DON/kg BW, mean, n=5
[12] = DONS 1 or DONS 2 in plasma (DON equivalents), DONSiv 50 µg/kg BW, individual pigs IV6-11
[13] = DONS 1 or DONS 2 in plasma (DON equivalents), DONSiv 50 µg/kg BW, mean, n=6
[14] = DONS 1 or DONS 2 in plasma (DON equivalents), IV 50 µg DONS mixture/kg BW (DONSiv), individual pigs IV6-11
[15] = DONS 1 or DONS 2 in plasma, DONSiv 50 µg/kg BW, individual pigs IV6-11
[16] = DONS 1 or DONS 2 in plasma, DONSiv 50 µg/kg BW, mean, n=6

Compound: CC1=C[C@H]2O[C@@H]3[C@H](O)C[C@](C)([C@@]2(CO)[C@H](O)C1=O)[C@]31CO1 [DON, deoxynivalenol]
- Proportion in bolus solution [1]: 19.26%
- Proportion in standard solution [1]: 0%
- Proportion in pig plasma [1]: 10.45%
- number of retching and vomiting episodes ([2]; IV 50 µg DON/kg BW): between three and nine times
- time of retching and vomiting after bolus ([2]; IV 50 µg DON/kg BW): 6 to 16 min
- clinical symptoms [2]: sickness and emesis within minutes
- clinical symptoms ([2]; listed as DONiv): retching and vomiting
- mean maximum concentration of DON in plasma (A + B) ([3]; DON after DONSiv 50 µg/kg BW): 17.33 ng/mL
- B [3, 8]: 7.13 ng/mL and 5.49 ng/mL and 5.08 ng/mL and 2.91 ng/mL and 6.48 ng/mL and 3.17 ng/mL
- F, release rate of DON from DONS [3, 8]: 12.5% and 17.3% (2×) and 18.2% and 23.8% and 15.3%
- α, rate constant of distribution phase [3, 8]: 5.02 h⁻¹ and 3.23 h⁻¹ and 4.83 h⁻¹ and 1.72 h⁻¹ and 3.99 h⁻¹ and 2.25 h⁻¹
- β, rate constant of elimination phase [3, 8]: 0.32 h⁻¹ and 0.22 h⁻¹ and 0.34 h⁻¹ and 0.17 h⁻¹ and 0.29 h⁻¹ and 0.27 h⁻¹
- A [3, 9]: 12.29 ng/mL
- B [3, 9]: 5.04 ng/mL
- F, release rate of DON from DONS [3, 9]: 17.37%
- α, rate constant of distribution phase [3, 9]: 3.51 h⁻¹
- β, rate constant of elimination phase [3, 9]: 0.27 h⁻¹
- A ([3]; DON in plasma after IV 50 µg DONS mixture/kg BW (DONSiv), individual pigs IV6-11): 12.44 ng/mL and 8.40 ng/mL and 17.13 ng/mL and 12.74 ng/mL and 12.50 ng/mL and 10.51 ng/mL
- A ([3]; DON in plasma, IV 50 µg DON/kg BW, two-compartment fit, individual pigs IV 1-5, listed as DONiv): 136.4 ng/mL and 624.9 ng/mL and 121.9 ng/mL and 56.2 ng/mL and 74.5 ng/mL
- B [3, 10]: 96.5 ng/mL and 83.6 ng/mL and 73.5 ng/mL and 64.5 ng/mL and 84.1 ng/mL
- α, rate constant of distribution phase [3, 10]: 7.35 h⁻¹ and 18.74 h⁻¹ and 13.71 h⁻¹ and 3.88 h⁻¹ and 6.29 h⁻¹
- β, rate constant of elimination phase [3, 10]: 0.36 h⁻¹ and 0.33 h⁻¹ and 0.35 h⁻¹ and 0.34 h⁻¹ and 0.38 h⁻¹
- A [3, 11]: 202.8 ng/mL
- B [3, 11]: 80.5 ng/mL
- α, rate constant of distribution phase [3, 11]: 9.99 h⁻¹
- β, rate constant of elimination phase [3, 11]: 0.35 h⁻¹
- initial concentration A + B of DON at t = 0 ([4]; IV DON): 46.2–139.9 ng/mL plasma
- maximum concentration cmax ([4]; oral, DON in wheat): 15.2 ng/mL
- tmax ([4]; oral, DON in wheat): 1.65 h
- total DON bioavailability ([4]; single oral dose, DON-contaminated wheat): 91.5% ± 27.4%
- share of orally-administered DON absorbed in the stomach and the first third of the small intestine [5]: ~90%

Compound: CC12CC3(O)[C@@H]4O[C@H]([C@H]1S(=O)(=O)O)[C@](CO)([C@H](O)C2=O)[C@@]3(C)C[C@H]4O [DONS 1]
- Proportion in bolus solution [1]: 69.75%
- Proportion in standard solution [1]: 26.43%
- Proportion in pig plasma [1]: 59.49%
- detection in plasma after oral DONSpo [6]: rarely, traces of DONS 1 and 2 (<LOQ)
- Vd(area), apparent volume of distribution ([3]; individual pigs IV6-11): 0.35 L/kg and 0.48 L/kg and 0.51 L/kg and 0.37 L/kg and 0.44 L/kg and 0.42 L/kg
- Vd(area), apparent volume of distribution ([3]; mean, n=6): 0.4 L/kg
- AUC, area under the curve [3, 12]: 179.7 ng·h/mL and 143.2 ng·h/mL and 167.6 ng·h/mL and 187.8 ng·h/mL and 163.4 ng·h/mL and 167.8 ng·h/mL
- B [3, 12]: 74.30 ng/mL and 55.10 ng/mL and 61.46 ng/mL and 75.58 ng/mL and 67.17 ng/mL and 69.69 ng/mL
- A [3, 13]: 104.2 ng/mL
- AUC, area under the curve [3, 13]: 168.2 ng·h/mL
- B [3, 13]: 67.2 ng/mL
- A [3, 14]: 86.78 ng/mL and 61.27 ng/mL and 60.09 ng/mL and 257.42 ng/mL and 79.19 ng/mL and 80.20 ng/mL
- t1/2β, half-life of elimination [3, 15]: 0.87 h and 0.96 h (2×) and 1.18 h and 0.99 h and 0.98 h
- α, rate constant of distribution phase [3, 15]: 11.35 h⁻¹ and 13.56 h⁻¹ and 4.94 h⁻¹ and 20.41 h⁻¹ and 4.55 h⁻¹ and 10.96 h⁻¹
- β, rate constant of elimination phase [3, 15]: 0.80 1/h and 0.72 1/h (2×) and 0.59 1/h and 0.70 1/h and 0.71 1/h
- α, rate constant of distribution phase [3, 16]: 11.0 h⁻¹
- β, rate constant of elimination phase [3, 16]: 0.7 h⁻¹
- peak concentration in plasma (mean of A + B) [3]: 171.4 ng/mL
- stability in plasma [3]: stable in plasma
- pH range of stability [7]: 2–10

Compound: C[C@H]1[C@H](S(=O)(=O)O)[C@H]2O[C@@H]3[C@H](O)C[C@](C)([C@]24COC1(O)[C@H]4O)[C@]31CO1 [DONS 2]
- Proportion in bolus solution [1]: 10.69%
- Proportion in standard solution [1]: 14.03%
- Proportion in pig plasma [1]: 28.25%
- detection in plasma after oral DONSpo [6]: rarely, traces of DONS 1 and 2 (<LOQ)
- Vd(area), apparent volume of distribution ([3]; individual pigs IV6-11): 0.68 L/kg and 0.96 L/kg and 0.67 L/kg and 1.08 L/kg and 0.53 L/kg and 0.69 L/kg
- Vd(area), apparent volume of distribution ([3]; mean, n=6): 0.8 L/kg
- AUC, area under the curve [3, 12]: 81.5 ng·h/mL and 74.6 ng·h/mL and 80.1 ng·h/mL and 78.1 ng·h/mL and 105.8 ng·h/mL and 94.6 ng·h/mL
- B [3, 12]: 32.87 ng/mL and 20.05 ng/mL and 29.84 ng/mL and 19.94 ng/mL and 34.75 ng/mL and 25.99 ng/mL
- A [3, 13]: 52.7 ng/mL
- AUC, area under the curve [3, 13]: 85.8 ng·h/mL
- B [3, 13]: 27.2 ng/mL
- A [3, 14]: 46.01 ng/mL and 23.41 ng/mL and 43.30 ng/mL and 34.43 ng/mL and 126.49 ng/mL and 42.60 ng/mL
- t1/2β, half-life of elimination [3, 15]: 0.77 h (2×) and 0.99 h and 0.74 h and 1.17 h and 0.91 h
- α, rate constant of distribution phase [3, 15]: 12.01 h⁻¹ and 4.93 h⁻¹ and 9.99 h⁻¹ and 4.03 h⁻¹ and 17.39 h⁻¹ and 4.41 h⁻¹
- β, rate constant of elimination phase [3, 15]: 0.90 1/h (2×) and 0.70 1/h and 0.93 1/h and 0.59 1/h and 0.76 1/h
- α, rate constant of distribution phase [3, 16]: 8.8 h⁻¹
- β, rate constant of elimination phase [3, 16]: 0.8 h⁻¹
- peak concentration in plasma (mean of A + B) [3]: 79.9 ng/mL
- stability in plasma [3]: stable in plasma
- pH range of stability [7]: 2–7
- pH values at which back-formation or degradation to DON is observed [7]: 8–10
